Values quoted from earlier work, collected in patent US20090156670A1 (VENUS REMEDIES LIMITED, priority 2004, published 2009).

Experiments:
[1] = rheumatoid arthritis patients, long-term (6 months) study
CD43 = settings: human neutrophils
ICAM-3 = settings: human neutrophils
CD11a = settings: human neutrophils
CD31 = settings: human neutrophils
CD44 = settings: human neutrophils
CD11b = settings: human neutrophils
[2] = test system: sodium urate-induced synovitis; settings: dogs; prophylactically and therapeutically
[3] = test system: adjuvant-induced polyarthritis; settings: rats; prophylactically and therapeutically
[4] = pain elicited by chemical and mechanical stimuli
[5] = rats
[6] = test system: interleukin1β-induced prostaglandin E2 production
COX-I = COX-I (Homo sapiens, UniProt P23219); settings: oral form
COX-I, sequence (P23219 24-599): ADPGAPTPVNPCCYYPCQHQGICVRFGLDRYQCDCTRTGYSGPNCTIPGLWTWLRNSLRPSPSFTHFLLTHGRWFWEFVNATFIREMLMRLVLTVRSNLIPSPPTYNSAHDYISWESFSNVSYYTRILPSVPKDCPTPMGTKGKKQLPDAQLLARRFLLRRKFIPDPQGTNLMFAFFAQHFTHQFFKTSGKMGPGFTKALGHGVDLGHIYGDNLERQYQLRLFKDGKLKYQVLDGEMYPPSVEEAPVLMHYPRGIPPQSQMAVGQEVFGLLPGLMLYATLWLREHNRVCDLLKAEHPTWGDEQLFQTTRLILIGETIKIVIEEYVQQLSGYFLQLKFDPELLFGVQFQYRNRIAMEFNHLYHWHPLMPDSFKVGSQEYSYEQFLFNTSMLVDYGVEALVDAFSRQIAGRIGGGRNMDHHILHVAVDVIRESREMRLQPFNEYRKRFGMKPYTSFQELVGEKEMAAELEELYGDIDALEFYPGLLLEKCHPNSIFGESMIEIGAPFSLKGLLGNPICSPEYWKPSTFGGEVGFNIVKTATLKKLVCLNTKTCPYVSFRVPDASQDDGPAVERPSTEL

O=C(O)COC(=O)Cc1ccccc1Nc1c(Cl)cccc1Cl [aceclofenac, 2-[(2,6-dichlorophenyl)amino]phenylacetoxyacetic acid]
incidence of gastrointestinal intolerance [1]: 13% | decrement of CD43 expression (CD43): moderate | decrement of ICAM-3 expression (ICAM-3): slight | CD11a expression (CD11a): unaffected | CD31 expression (CD31): unaffected | CD44 expression (CD44): unaffected | CD11b expression (CD11b): slightly increased | neutrophil aggregation induced with anti-CD43 Mab (neutrophil aggregation): significantly inhibited | activity against sodium urate-induced synovitis [2]: highly active | activity against adjuvant-induced polyarthritis [3]: highly active | analgesic effect compared with indometacin and diclofenac [4]: nearly equal to or slightly better | fever induced by brewer's yeast injection [5]: markedly suppressed | interleukin1β-induced prostaglandin E2 production [6]: inhibits | COX-I inhibitor effect (COX-I): poor

O=C(O)Cc1ccccc1Nc1c(Cl)cccc1Cl [diclofenac]
incidence of gastrointestinal intolerance [1]: 17%
